≈ marks a conversion by molar mass, not a printed value. Where “and” joins values, the source holds several entries; their conditions need not be identical. Equal entries are not always repeated. Where two headings read alike, the source gives them in different places.
Columns and labels:
[1] = Metabolic stability in mouse liver microsomes (with UDPGA); details: for Cli: mouse liver microsomes 0.5 mg/mL, 5 μM, cofactors + UDPGA (Phase II stability)
Description: (§1) After the pre-incubation period, the reaction was started by adding the cofactor mixture (NADP, Glc6P, and Glc6P-DH in 2% sodium bicarbonate) and UDPGA. Samples (25 μL) were taken at times of 0, 10, 20, 30, 45, and 60 min and then mixed with 150 μL of ACN to stop the reaction. After centrifugation, the supernatants were analyzed by LC–MS/MS. A control sample without cofactors was included in the assay in order to check the stability of the test compounds in the matrix after 60 min. 7-Ethoxycoumarin (7-EC) and 7-hydroxycoumarin (7-OHC) were contemporarily tested as reference standards for the Phase I and Phase II reactions, respectively.

[2] = Metabolic stability in human liver microsomes (with UDPGA); details: for Cli: human liver microsomes 0.5 mg/mL, 5 μM, cofactors + UDPGA (Phase II stability)
Description: as §1

[3] = biological target: T1, HMG-CoAR (catalytic domain) (Homo sapiens, UniProt P04035); assay: HMG-CoAR activity assay (Sigma kit, NADPH oxidation at 340 nm); assay type: biochemical; details: 10–500 μM tested, 37 °C
T1 construct: and finally, HMG-CoAR (catalytic domain) (2 μL); purchased Sigma Aldrich
T1 sequence (P04035 426-888 limits assumed): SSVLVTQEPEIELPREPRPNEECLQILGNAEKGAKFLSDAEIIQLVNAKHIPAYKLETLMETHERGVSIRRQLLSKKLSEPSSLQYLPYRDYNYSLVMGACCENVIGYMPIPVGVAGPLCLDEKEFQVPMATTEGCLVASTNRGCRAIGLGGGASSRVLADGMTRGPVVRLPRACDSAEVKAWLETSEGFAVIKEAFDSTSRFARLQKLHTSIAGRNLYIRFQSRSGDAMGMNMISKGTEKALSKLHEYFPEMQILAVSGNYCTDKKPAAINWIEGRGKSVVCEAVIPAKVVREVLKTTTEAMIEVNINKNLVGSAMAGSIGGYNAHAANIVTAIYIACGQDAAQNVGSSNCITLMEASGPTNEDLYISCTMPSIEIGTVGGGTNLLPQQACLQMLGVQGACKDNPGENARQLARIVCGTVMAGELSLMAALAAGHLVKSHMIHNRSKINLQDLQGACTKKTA
Description: The experiments were carried out following the manufacturer’s instructions and optimized protocol.[43] The assay buffer, NADPH, substrate solution, and HMG-CoAR were provided in the HMG-CoAR Assay Kit (Sigma Aldrich SRL, Milan, Italy). The experiments were carried out following the manufacturer’s instructions at 37 °C. In particular, each reaction (200 μL) was prepared adding the reagents in the following order: 1× assay buffer, a 10–500 μM dose of sonicated Dim analogues or vehicle (C), NADPH (4 μL), the substrate solution (12 μL), and finally, HMG-CoAR (catalytic domain) (2 μL). Subsequently, the samples were mixed, and the absorbance at 340 nm was read by a microplate reader (Synergy H1, Winooski, VT, USA) at times of 0 and 10 min. The HMGCoAR-dependent oxidation of NADPH and the inhibition properties of the peptides were measured by absorbance reduction, which is directly proportional to enzyme activity.

PCSK9/LDLR [4] = biological target: T2, PCSK9/LDLR (Homo sapiens, UniProt Q8NBP7); assay: In vitro PCSK9-LDLR binding assay (CircuLex/CycLex kit); details: for IC50: mean ± SD, three independent experiments, Hill slope fixed at −1
T2 construct: purchased CircuLex (CycLex Co., Nagano, Japan)
Description: Diimidazole analogues (0.1–1 × 10^6 nM) were tested using the in vitro PCSK9-LDLR binding assay (CycLex Co., Nagano, Japan) following the manufacturer’s instructions and with the conditions already optimized.[15] Briefly, the plates were pre-coated with a recombinant LDLR-AB domain containing the binding site of PCSK9. Before starting the assay, the tested analogues and/or the vehicle in DMSO were sonicated at 37 °C, diluted in the reaction buffer, and added in microcentrifuge tubes. Afterward, the reaction mixtures were added in each well of the microplate, and the reaction was started by adding His-tagged PCSK9 solution (3 μL). The microplate was allowed to incubate for 2 h at room-temperature (RT) shaking at 300 rpm on an orbital microplate shaker. Subsequently, the wells were washed 4 times with the wash buffer. After the last wash, the biotinylated anti-His-tag monoclonal antibody (100 μL) was added and incubated at RT for 1 h shaking at 300 rpm. After incubation, the wells were washed 4 times with wash buffer. After the last wash, 100 μL of HRP-conjugated streptavidin were added, and the plate was incubated for 20 min at RT. After incubation, the wells were washed 4 times with wash buffer. Finally, the substrate reagent (tetra-methylbenzidine) was added, and the plate was incubated for 10 min at RT shaking at ca. 300 rpm. The reaction was stopped with 2.0 M sulfuric acid, and the absorbance at 450 nm was measured using a Synergy H1 fluorescent plate reader (Winooski, VT, USA).
All the data sets were checked for normal distribution by D’Agostino and Pearson tests. Since they are all normally disturbed with p values of […], we proceeded with statistical analyses of one-way ANOVA followed by Tukey’s post hoc test using Graphpad Prism 9 (San Diego, CA, USA). Values were reported as means ± s.d.; p values of <0.05 were considered to be significant. The IC50 values of samples inhibiting PCSK9-LDLR binding were evaluated by using the log(inhibitor) vs response model of GraphPad Prism 9 (San Diego, CA, USA). This model assumes that the dose–response curves has a standard slope, equal to a Hill slope (or slope factor) of −1.0. This is the slope expected when a ligand binds to a receptor following the law of mass action and is the slope expected of a dose–response curve when the second messenger created by receptor stimulation binds to its receptor by the law of mass action (https://graphpad.com/guides/prism/latest/curvefitting/reg_dr_inhibit.htm).

Solubility in PBS pH 7.4 = assay type: physicochemical; details: PBS buffer, pH 7.4, PBS, 37 °C
Description: Solubility was tested after incubation of the test item at 200 μM and 500 μM in PBS buffer pH 7.4 starting from an initial DMSO solution of Dim22 100 mM. Samples in duplicates were incubated at 37 °C for 90 min, were then centrifuged at 12500 rpm for 5 min. Supernatants were analyzed in LC/MS together with a solution of the compound in ACN.

PCSK9/LDLR [5] = biological target: T2, PCSK9/LDLR; details: cited from earlier work
[6] = biological target: T1, HMG-CoAR (catalytic domain); set-up: method as in doi:10.1016/j.jff.2017.02.009; details: cited from earlier work

T2 sequence (Q8NBP7 153-692): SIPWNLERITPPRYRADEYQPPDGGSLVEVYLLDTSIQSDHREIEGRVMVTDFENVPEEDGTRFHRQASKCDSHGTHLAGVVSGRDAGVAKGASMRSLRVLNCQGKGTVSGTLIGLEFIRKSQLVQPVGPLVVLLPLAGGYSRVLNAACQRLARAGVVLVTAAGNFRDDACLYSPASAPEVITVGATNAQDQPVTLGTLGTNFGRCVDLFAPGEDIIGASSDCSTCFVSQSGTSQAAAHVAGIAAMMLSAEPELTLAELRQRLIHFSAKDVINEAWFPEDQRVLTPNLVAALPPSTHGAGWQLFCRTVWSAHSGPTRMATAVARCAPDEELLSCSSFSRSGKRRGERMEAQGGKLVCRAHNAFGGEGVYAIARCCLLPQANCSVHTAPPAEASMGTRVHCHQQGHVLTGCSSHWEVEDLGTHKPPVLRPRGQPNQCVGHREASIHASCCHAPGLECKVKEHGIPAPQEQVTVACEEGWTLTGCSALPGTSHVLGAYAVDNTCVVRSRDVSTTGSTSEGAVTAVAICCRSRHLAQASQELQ
T2 sequence (Q8NBP7 31-152 limits assumed): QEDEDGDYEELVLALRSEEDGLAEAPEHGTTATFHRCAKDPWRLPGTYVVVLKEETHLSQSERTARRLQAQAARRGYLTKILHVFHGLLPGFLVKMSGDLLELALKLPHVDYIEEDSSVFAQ

Compound: CCOc1ccc2ccc(=O)oc2c1 [7-EC, 7-Ethoxycoumarin, reference compound]
- Cli [1]: 290.9 μL/min/mg protein
- Cli [2]: 46.1 μL/min/mg protein

Compound: O=c1ccc2ccc(O)cc2o1 [7-OHC, 7-hydroxycoumarin, reference compound]
- Cli [1]: 533.3 μL/min/mg protein
- Cli [2]: 390.0 μL/min/mg protein

Compound: CNCCCCCn1cncc1-c1ncc(-c2ccc3ccccc3c2)n1CCCC(C)(C)C [Dim2, 5-(1-(4,4-Dimethylpentyl)-5-(naphthalen-2-yl)-1H,3′H-[2,4′-biimidazol]-3′-yl)-N-methylpentan-1-amine]
- IC50 [3]: 40500 ± 15200 nM
- IC50 (PCSK9/LDLR [4]): 1990 ± 1650 nM
- PCSK9 activity, times less active than Dim16 (PCSK9/LDLR [4]; ratio versus Dim16): about 2500

Compound: CNCCCCCn1cncc1-c1ncc(-c2ccc3ccccc3c2)n1CC1CCCCC1 [Dim21, 5-(1-(Cyclohexylmethyl)-5-(naphthalen-2-yl)-1H,3′H-[2,4′-biimidazol]-3’-yl)-N-methylpentan-1-amine]
- IC50 [3]: 38400 ± 12700 nM
- IC50 (PCSK9/LDLR [4]): 4500 ± 500 nM

Compound: CNCCCCCn1c(-c2ncc(-c3ccc4ccccc4c3)n2CC2CCCCC2)cnc1I [Dim22, 5-(1-(Cyclohexylmethyl)-2′-iodo-5-(naphthalen-2-yl)-1H,3′H-[2,4′-biimidazol]-3′-yl)-N-methylpentan-1-amine]
- NADPH dependence of the observed metabolism ([1]; mice): NADPH-dependent
- Cli [1]: 57.0 μL/min/mg protein
- clearance classification ([1]; mouse liver microsomes, classification of Table S4): medium–high
- IC50 [3]: 36200 ± 5980 nM
- Cli [2]: 51.5 μL/min/mg protein
- clearance classification ([2]; human liver microsomes, classification of Table S4): medium–high
- non-NADPH-dependent part of the observed metabolism ([2]; humans): 50%
- solubility at 90 min (Solubility in PBS pH 7.4): ~10 µM (≈ 5.82 µg/mL)
- solubility at 1.5 h (Solubility in PBS pH 7.4; 90 min): 5.8 µg/mL (≈ 9.97 µM)
- IC50 (PCSK9/LDLR [4]): 1990 ± 2860 nM

Compound: C#Cc1ncc(-c2ncc(-c3ccc4ccccc4c3)n2CC2CCCCC2)n1CCCCCNC [Dim23, 5-(1-(Cyclohexylmethyl)-2′-ethynyl-5-(naphthalen-2-yl)-1H,3′H-[2,4′-biimidazol]-3′-yl)-N-methylpentan-1-mine]
- HMG-CoAR activity IC50 [3]: not active
- IC50 (PCSK9/LDLR [4]): 1180 ± 1060 nM

Compound: Cn1cnc(-c2ncc(-c3nc(-c4ncc(-c5ccccc5)n4C)cn3C)n2C)c1 [MeIm]
- IC50 value (PCSK9–LDLR interaction) (PCSK9/LDLR [5]; in words): low-micromolar range

Compound: CNCCCCCn1cncc1-c1nc(-c2ncc(-c3ccc(OC)cc3)n2C)cn1CCc1ccccc1 [RIm14]
- affinity with PCSK9 (PCSK9/LDLR [5]; in words): low micromolar affinity

Compound: CNCCCCCn1cncc1-c1nc(-c2ncc(-c3ccc(OC)cc3)n2C)cn1Cc1ccccc1 [Rim13]
- affinity with PCSK9 (PCSK9/LDLR [5]; in words): low micromolar affinity
- IC50 (PCSK9/LDLR [5]; read-out: PCSK9/LDLR interaction IC50): 1600 nM and ~1000 nM

Compound: LILPKHSDAD [P5, peptide P5 derived from lupin proteins]
- IC50 (PCSK9/LDLR [5]; read-out: PCSK9/LDLR PPI IC50): 1600 nM
- IC50 [6]: 147000 nM
